What all share (type): in vivo, Balb/c mice
The subject of test [1] is oxazolone-induced colitis mice. The experiment in a line: Oxazolone-induced acute colitis in mice for ulcerative colitis (bodyweight, DAI, colon weight, length and density). The note with it: PO BID 5 days, compound A30 1, 5 or 25 mg/kg, tofacitinib 10 mg/kg; for colon weight / colon length / colon density: Day 9 after sensitization; for colon weight: FIG. 3; for colon length: FIG. 4; for colon density: FIG. 5; for bodyweight change: FIG. 1; for DAI score: FIG. 2. The protocol: (§1) Compound A30 was evaluated in an oxazolone-induced colitis murine model, along with tofacitinib. Boirivant et al., J. Exp. Med. 1998, 188, 1929-39. Balb/c mice were randomly divided into 6 groups according to Table 1:4 treatment groups (Treatment Groups), 1 vehicle group (Vehicle Group), and 1 sham group (Sham Group). The mice in Treatment and Vehicle Groups were sensitized with 200 μL of 2% oxazolone in acetone and olive oil (1:4), followed by injection of 100 μL of 1.5% oxazolone into the rectum of each mouse on Day 5 after sensitization. The mice in Sham Group were sensitized with 200 μL of a mixture of acetone and olive oil (1:4) without oxazolone, followed by injection of 100 μL of 50% ethanol/water into the rectum of each mouse on Day 5 after sensitization. Before the injection into the rectum, each mouse was anesthetized intraperitoneally with tribromoethanol (0.3 mL, 1.25%). From Days 4 to 8 after sensitization, the mice in Sham and Vehicle Groups were each given 0.5% CMC-Na by gavage, and the mice in Treatment Groups were each given by gavage tofacitinib or compound A30 in 0.5% CMC-Na, respectively, according to the dosing schedule shown in Table 1.
The bodyweight of each mouse was measured daily. From Day 4 after sensitization, the fecal property and occult blood as determined with a fecal occult blood test (FOBT) of each mouse were measured daily to calculate a disease activity index (DAI) according to Table 2.
(§2) On Day 9 after sensitization, each mouse was euthanized and blood was collected from the heart. A serum was prepared and frozen for the determination of inflammatory factors.
(§3) The colon of each mouse was collected and photographed, and the colon length was measured and weighed after the removal of the content of the colon. A part of each colon collected was fixed using the Swiss roll technique in neutral paraformaldehyde for pathological scoring (Table 3) as described in Bialkowska et al., J. Vis. Exp. 2016, 113, e54161. The rest of the colon mucosa of each mouse was scraped and frozen for the determination of inflammatory factors.
Due to the inflammation, it is expected that the colon of an oxazolone-induced colitis mouse has an […], and increased density.

The test system of the next test is TNF-α. The test can be described thus: TNF-α level in oxazolone-induced colitis mice (cytometric bead array). The note with it: Day 9, PO BID 5 days, compound A30 1, 5 or 25 mg/kg, tofacitinib 10 mg/kg; for TNF-α level (intestinal mucosa): FIG. 7; for TNF-α level (serum): FIG. 9. The protocol:
as §1, §2, §3
(§4) The IFN-γ and TNFα levels were analyzed using a BD™ cytometric bead array (CBA) kit.

A further test deals with IFN-γ. The test can be described thus: IFN-γ level in oxazolone-induced colitis mice (cytometric bead array). To be noted: Day 9, PO BID 5 days, compound A30 1, 5 or 25 mg/kg, tofacitinib 10 mg/kg; for IFN-γ level (intestinal mucosa): FIG. 8; for IFN-γ level (serum): FIG. 10. The procedure: as §1, §2, §3, §4

Take `C[P@](=O)(CCc1cc(Cl)c(C(=O)N[C@@H](Cc2cccc(S(C)(=O)=O)c2)C(=O)O)c(Cl)c1)c1cccc(O)c1` [compound A30, (S)-2-(2,6-dichloro-4-(2-((S)-(3-hydroxyphenyl)(methyl)phosphoryl)ethyl)benz-amido)-3-(3-(methylsulfonyl)phenyl)propanoic acid]: in test [1], the colon weight entry was “able to reverse the disease effects”, the colon length entry is “able to reverse the disease effects”, the colon density result is listed as “able to reverse the disease effects” and the bodyweight change result is “slowed the bodyweight loss”. Also, the DAI score result in test [1] is reported as “improved the DAI score”. Further, in the test with TNF-α, the “TNF-α level (intestinal mucosa)” value is on record as “lowered” and the “TNF-α level (serum)” value was “lowered”. Moreover, in the test with IFN-γ, the “IFN-γ level (intestinal mucosa)” value is “lowered” and the “IFN-γ level (serum)” value is reported as “lowered”.

Regarding `C[C@@H]1CCN(C(=O)CC#N)C[C@@H]1N(C)c1ncnc2[nH]ccc12` [tofacitinib], in test [1], the colon weight entry is “able to reverse the disease effects”, the colon length result is listed as “able to reverse the disease effects”, the colon density result is recorded as “able to reverse the disease effects” and the bodyweight change entry is listed as “slowed the bodyweight loss”. Besides, in test [1], the DAI score entry is reported as “improved the DAI score”. Moreover, in the test on TNF-α, the “TNF-α level (intestinal mucosa)” value is reported as “lowered” and the “TNF-α level (serum)” value is recorded as “lowered”. For the same compound, in the test with IFN-γ, the “IFN-γ level (intestinal mucosa)” value is “lowered” and the “IFN-γ level (serum)” value is reported as “lowered”.

These data come from patent publication US20260294940A1, “PHOSPHORUS-CONTAINING COMPOUNDS FOR TREATING INFLAMMATORY BOWEL DIESEASE” (VivaVision Biotech, Inc., priority 2022, published 2026).
